Reference: patent publication US20220288213A1, “INSULIN ANALOGUES WITH GLUCOSE REGULATED CONFORMATIONAL SWITCH” (Thermalin Inc., priority 2019, published 2022)

Tests used:
[1] = Alizarin Red S (ARS) competitive assay, glucose as competitor; type: binding
Protocol: Stock solutions of test compounds, competitor (polyols, i.e., fructose and glucose), and Alizarin Red S (ARS) were dissolved in 0.1 mM Sodium Phosphate, pH 7.4. In a 96-well plate, stock solutions were combined to final concentrations of 20 μm ARS, 0.1 mM test compound, and varying competitor concentrations (0, 5, 10, 15, and/or 25 mM). Final solution (75 μL) was added to each plate well. Fluorescence data was acquired on Molecular Devices SpectraMax M2 with excitation at 456 nm and emission at 600 nm. In this assay, the selectivity of synthesized constructs for glucose was determined using the ARS competitive assay. Test articles were incubated with ARS and competitors (i.e. glucose and fructose) were added at varying concentrations. ARS fluorescence increases when the molecule interacts with boronic acids. The fluorescence was measured after the addition of the competitor. A decrease in fluorescence indicates the displacement of the ARS molecule by the sensor. All data were normalized to the fluorescence of an untreated solution (ARS bound to the sensing unit). […] This was not observed when FPBA was incubated with glucose. […] These are peptides modified to include glucose sensors at the lysyl residue. DA-Z4 is an L-diaminopropionic acid modified to include two benzoxoxaboroles. DA-Z16 is an D-diaminobutyric acid modified to include two benzoxaboroles. […]

[2] = Alizarin Red S (ARS) competitive assay, fructose as competitor; type: binding; settings: 20 μm ARS, 0.1 mM test compound, competitor 0-25 mM, pH 7.4; a decrease means ARS is displaced
Protocol: Stock solutions of test compounds, competitor (polyols, i.e., fructose and glucose), and Alizarin Red S (ARS) were dissolved in 0.1 mM Sodium Phosphate, pH 7.4. In a 96-well plate, stock solutions were combined to final concentrations of 20 μm ARS, 0.1 mM test compound, and varying competitor concentrations (0, 5, 10, 15, and/or 25 mM). Final solution (75 μL) was added to each plate well. Fluorescence data was acquired on Molecular Devices SpectraMax M2 with excitation at 456 nm and emission at 600 nm.
In this assay, the selectivity of synthesized constructs for glucose was determined using the ARS competitive assay. Test articles were incubated with ARS and competitors (i.e. glucose and fructose) were added at varying concentrations. ARS fluorescence increases when the molecule interacts with boronic acids. The fluorescence was measured after the addition of the competitor. A decrease in fluorescence indicates the displacement of the ARS molecule by the sensor. All data were normalized to the fluorescence of an untreated solution (ARS bound to the sensing unit). […] This was not observed when FPBA was incubated with glucose. […] These are peptides modified to include glucose sensors at the lysyl residue. DA-Z4 is an L-diaminopropionic acid modified to include two benzoxoxaboroles. DA-Z16 is an D-diaminobutyric acid modified to include two benzoxaboroles. […]

Row | Compound | binding to glucose compared to monoboronic acids such as FPBA and FPBA KB28 PB29 ([1]; ARS data) | ARS fluorescence signal when treated with fructose [2] | ARS fluorescence signal decrease when incubated with glucose ([1]; 20 μm ARS, 0.1 mM test compound, competitor 0-25 mM, pH 7.4)
1 | O=C(NC[C@H](NC(=O)c1ccc2c(c1)B(O)OC2)C(=O)O)c1ccc2c(c1)B(O)OC2 [DA-Z4, (S)-2,3-bis(1-hydroxy-1,3-dihydrobenzo[c][1,2]oxaborole-6-carboxamido)propanoic acid] | stronger binding to glucose | – | –
2 | fluoro-phenylboronic acid [FPBA] | – | fluorescence signal decreases | not observed
